Source: PubChem BioAssay (NCI)
Several values for one entry are separate records, joined by “and”; a condition that tells them apart may be missing. Equal entries are not always repeated.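 Compound exposure: 48 hours, 5 concentrations, 96-well plates. GI50 is the concentration that inhibits growth by half. At the TGI there is no net growth.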

How the values were obtained:
Test in all cases: NCI anticancer screen, dose series, 48 h
EKVX NSCLC = system: EKVX NSCLC
SF-268 CNS = system: SF-268 CNS
SK-MEL-5 melanoma = system: SK-MEL-5 melanoma
OVCAR-8 ovarian = system: OVCAR-8 ovarian
SNB-75 CNS = system: SNB-75 CNS
RPMI-8226 leukemia = system: RPMI-8226 leukemia
M14 melanoma = system: M14 melanoma
RXF 393 renal = system: RXF 393 renal
NCI-H23 lung = system: NCI-H23 lung
MDA-MB-435 = system: MDA-MB-435

Structure (SMILES)	GI50 (EKVX NSCLC) [µM]	TGI (EKVX NSCLC)	GI50 (SF-268 CNS) [µM]	TGI (SF-268 CNS)	GI50 (SK-MEL-5 melanoma) [µM]	TGI (SK-MEL-5 melanoma)	GI50 (OVCAR-8 ovarian) [µM]	TGI (OVCAR-8 ovarian) [µM]	GI50 (SNB-75 CNS) [µM]	TGI (SNB-75 CNS)	GI50 (RPMI-8226 leukemia) [µM]	TGI (RPMI-8226 leukemia)	GI50 (M14 melanoma)	TGI (M14 melanoma) [µM]	GI50 (RXF 393 renal)	TGI (RXF 393 renal)	GI50 (NCI-H23 lung)	TGI (NCI-H23 lung) [µM]	GI50 (MDA-MB-435) [µM]	TGI (MDA-MB-435)
CC/C=C\C[C@H]1C/C=C2/C(=O)C=C[C@@H]2C/C=C\CCCC(=O)O1	2.04	5.89 µM	2.16	9.49 µM	1.38	2.74 µM	0.338	10.7	4.02	18 µM	0.352	4.03 µM	0.599 µM	3.7	1.57 µM	3.1 µM	1.89 µM	5.03	0.37	4.08 µM
COc1cc(/C=C/c2ccc(OC)c(OC)c2)cc(OC)c1	–	> 100 µM	–	> 100 µM	–	41.1 µM	–	> 100	–	> 100 µM	–	> 100 µM	–	67.9	–	50 µM	–	65.3	–	> 100 µM
CC1=CC(C/C(C)=C/COc2ccc3ccc(=O)oc3c2)OC1=O (stereo unspecified)	–	> 100 µM	–	> 100 µM	–	> 100 µM	–	> 100	–	> 100 µM	–	–	–	> 100	–	> 100 µM	–	> 100	–	> 100 µM
O=C1NC(=O)C(CC2CCCCCCCCCCC2=O)C(=O)N1 (stereo unspecified)	–	> 100 µM	–	> 100 µM	–	> 100 µM	–	> 100	–	> 100 µM	–	–	–	> 100	–	> 100 µM	–	> 100	–	> 100 µM
COc1c(CCl)cc(-c2cc(=O)c3ccccc3s2)cc1CCl	–	> 100 µM	–	> 100 µM	–	> 100 µM	–	> 100	–	24.9 µM	–	> 100 µM	–	> 100	–	3.2 µM	–	> 100	–	> 100 µM
Cc1ccc2[nH]c(O)c(N=Nc3ccc(S(N)(=O)=O)cc3)c2c1	> 25	> 25 µM	11.8	> 25 µM	11	> 25 µM	> 16.9	> 25	8.46	> 25 µM	> 25	> 25 µM	> 25 µM	> 25	5.27 µM	17.5 µM	> 21.5 µM	> 25	15.5	> 25 µM
CCn1c(-c2ccc(OC(C)=O)cc2)c(C)c2cc(OC(C)=O)ccc21	–	71.4 µM	–	58.5 µM	–	27.1 µM	–	> 100	–	50.2 µM	–	42.6 µM	–	38.9	–	25.6 µM	–	57.4	–	33.7 µM
CC1=C[C@H]2c3c(c(O)c(O)c4oc(-c5ccccc5)cc(=O)c34)[C@H](c3cc(O)c(O)c4oc(-c5ccccc5)cc(=O)c34)[C@H]2C(C)(C)C1	1.14	11.4 µM	0.541	17 µM	0.974	2.16 µM	0.68	> 75	0.286	5.76 µM	–	–	0.887 µM	4.88	0.245 µM	1.86 µM	0.375 µM	2.56	0.435	5.74 µM
COc1ccc(C(=O)COc2ccc(/C=C3\COc4ccc(OC)cc4C3=O)cc2)cc1	41.2	> 100 µM	23.7	60.5 µM	24.6	> 100 µM	18.4	66.5	20	69.9 µM	3.47	22.6 µM	39.7 µM	> 100	21.2 µM	47.6 µM	9.67 µM	32.8	6.46	78.5 µM
O=C(CCC1OCCO1)Nc1cc(NCc2ccccc2)ccc1OCc1ccccc1	–	65.5 µM	–	> 100 µM	–	35.3 µM	–	58.6	–	> 100 µM	–	> 100 µM	–	> 100	–	77.8 µM	–	> 100	–	63.9 µM
O=C1CSC(c2ccc(Cl)cc2Cl)N1c1ccc(F)cc1 (stereo unspecified)	17.6	34.8 µM	16.9	32.2 µM	24.6	39.8 µM	19	35.7	–	–	19.5	42.7 µM	15.2 µM	28.8	27.4 µM	56 µM	16.6 µM	31.2	20.8	43 µM
O=C(O)C1C(Br)(c2ccccc2)C1(Br)c1ccccc1 (stereo unspecified)	–	> 100 µM	–	69.7 µM	–	88.8 µM	–	84.6	–	93.9 µM	–	74.1 µM	–	> 100	–	41.7 µM	–	> 100	–	> 100 µM
COc1cc(C(=O)c2cc(C)c3[nH]c4ccc(C)cc4c3c2C)cc(OC)c1OC	< 0.01	> 100 µM	< 0.0186	> 100 µM	< 0.01	< 0.0146 µM	< 0.01	> 100	< 0.01	–	< 0.01	> 100 µM	< 0.01 µM	> 100	< 0.01 µM	4.84 µM	< 0.01 µM	> 100	< 0.01	0.136 µM
CC(C)(C[C@H]1CN(S(=O)(=O)c2cccc(C(F)(F)F)c2)c2cc(-c3cc(F)cc(OC(F)F)c3)ccc2O1)C(=O)O	5.25	19.3 µM	10.3	24.7 µM	3.56	14.9 µM	12.1	35.5	5.31	23.4 µM	3.45	17.6 µM	4.59 µM	17.5	8.43 µM	24.2 µM	9.4 µM	26.3	2.44	7.58 µM
Cc1ccc(-c2nc3ccc(Cl)cc3c(=O)n2N2C(=O)CSC2c2ccccc2Cl)cc1 (stereo unspecified)	4.15	> 100 µM	9.97	> 100 µM	20	> 100 µM	4.58	> 100	1.39	4.74 µM	> 100	> 100 µM	56.2 µM	> 100	6.46 µM	> 100 µM	> 100 µM	> 100	> 100	> 100 µM
Nc1ccc2cc3ccc(N)cc3nc2c1	0.64	10.6 µM and 6.53 µM and 7.66 µM	1.12	10.2 µM [middle of 4 runs]	–	2.74 µM and 4.33 µM and 2.93 µM	0.599	–	–	3.25 µM [middle of 4 runs]	–	4.77 µM and 5.01 µM and 6.42 µM	1.77 µM [middle of 4 runs]	–	2.03 µM and 1.36 µM and 0.565 µM	5.83 µM and 3.15 µM and 1.97 µM	1.58 µM [middle of 4 runs]	–	–	4.37 µM and 4.04 µM
